Source: patent US20170151264A1, “COMBINATION” (Almirall, S.A., priority 2014, published 2017)

Tests used:
[1] = test system: Concanavalin A induced plasma interleukin-2 (IL-2) release; assay: Concanavalin A induced plasma IL-2 release in rats; format: in vivo, Wistar rats; conditions: for reduction in IL2 production versus vehicle-treated con A-induced rats: LAS191954 0.1 mg/kg and/or dexamethasone 0.03 mg/kg, 1 h before con A, IL2 at 90 min; for plasma levels alone versus in combination: LAS191954 0.1 mg/kg, dexamethasone 0.03 mg/kg, rat
[2] = test system: neutrophils, eosinophils and lymphocytes in bronchoalveolar fluid (BALF); assay: House dust mite induced asthma model; format: in vivo, Mouse
neutrophils in BALF = assay: Cigarette smoke model; format: in vivo, Mouse; conditions: LAS191954 1 mg/kg and/or dexamethasone 0.3 mg/kg
[3] = test system: autoantibody-mediated cutaneous lesions; assay: Immunization-induced mouse model of epidermolysis bullosa acquista (EBA); format: in vivo, B6.SJL-H2s mice; conditions: 6 week treatment; for body weight gain: LAS191954 3 mg/kg/day or methylprednisolone 20 mg/kg/day orally
Method: Induction of experimental EBA was performed as described in Iwata H, Bieber K, Tiburzy B et al., J Immunol. 2013; 191:2978-2988. Briefly, 6-10 week B6.SJL-H2s mice were immunized with an emulsion of a recombinant protein encompassing the vWFA2 binding domain of mouse type VII collagen (COL7) in adjuvant (Titermax). After immunization, mice were weekly evaluated for the presence and extend of clinical disease, measured as percentage of body surface affected by skin lesions (erythema, blisters, erosions and crusts).
Treatments were carried out over a 6-week period, and mice were evaluated for the extend of clinical disease (primary endpoint) weekly. Clinical manifestations were scored 0 to 5, corresponding to 0%, <1%, ≧1% to <5%, ≧5% to <10%, ≧10% to <20% of body surface area affected, respectively. Area under Curve (AUC) was calculated from the score at inclusion, 1, 2, 3, 4, 5 and 6 weeks after allocation to treatment. For better comparability between experiments, the affected body surface area at weeks 1-6 was related to that at inclusion (set at 1).
Body weight was monitored weekly during treatment.

[4] = test system: Anti-Dsg3 and anti-dsDNA autoantibody production; assay: MRL/lpr spontaneous autoimmune disease model, autoantibody production; format: in vivo, MRL/Ipr mouse; conditions: for Inhibition (%) of Anti Dsg3 total IgG production (Normalized AUCw 12-19) versus Vehicle / Inhibition (%) of Anti dsDNA total IgG production (Normalized AUCw 12-19) versus Vehicle: LAS191954 3 mg/kg or prednisolone 10 mg/kg orally once a day for 6 weeks
Method: The primary endpoint of this study was assessment of autoantibody production, including pemphigus-specific anti-Dsg3 antibodies.
The prednisolone dose was selected based on previous reports and corresponds to a high CS dose in humans.
As autoantibodies develop progressively and may follow a different course in each animal, anti-dsDNA antibody levels were measured on week 12 and used to uniformly distribute animals to dosing groups. At week 13, daily treatments were initiated and continued for 6 weeks. Antibodies to dsDNA and Dsg3 were measured at weeks 12, 15, 17 and 19. Skin lesions were inspected visually throughout the study. Effects on other parameters such as proteinuria, as well as general hematological, serological, and histological signs were evaluated at study completion.

PI3Kβ = PI3Kβ (Homo sapiens, UniProt P42338); conditions: HUVEC, S1P stimulus, phosphorylated AKT
Chain of PI3Kβ (P42338 whole entry): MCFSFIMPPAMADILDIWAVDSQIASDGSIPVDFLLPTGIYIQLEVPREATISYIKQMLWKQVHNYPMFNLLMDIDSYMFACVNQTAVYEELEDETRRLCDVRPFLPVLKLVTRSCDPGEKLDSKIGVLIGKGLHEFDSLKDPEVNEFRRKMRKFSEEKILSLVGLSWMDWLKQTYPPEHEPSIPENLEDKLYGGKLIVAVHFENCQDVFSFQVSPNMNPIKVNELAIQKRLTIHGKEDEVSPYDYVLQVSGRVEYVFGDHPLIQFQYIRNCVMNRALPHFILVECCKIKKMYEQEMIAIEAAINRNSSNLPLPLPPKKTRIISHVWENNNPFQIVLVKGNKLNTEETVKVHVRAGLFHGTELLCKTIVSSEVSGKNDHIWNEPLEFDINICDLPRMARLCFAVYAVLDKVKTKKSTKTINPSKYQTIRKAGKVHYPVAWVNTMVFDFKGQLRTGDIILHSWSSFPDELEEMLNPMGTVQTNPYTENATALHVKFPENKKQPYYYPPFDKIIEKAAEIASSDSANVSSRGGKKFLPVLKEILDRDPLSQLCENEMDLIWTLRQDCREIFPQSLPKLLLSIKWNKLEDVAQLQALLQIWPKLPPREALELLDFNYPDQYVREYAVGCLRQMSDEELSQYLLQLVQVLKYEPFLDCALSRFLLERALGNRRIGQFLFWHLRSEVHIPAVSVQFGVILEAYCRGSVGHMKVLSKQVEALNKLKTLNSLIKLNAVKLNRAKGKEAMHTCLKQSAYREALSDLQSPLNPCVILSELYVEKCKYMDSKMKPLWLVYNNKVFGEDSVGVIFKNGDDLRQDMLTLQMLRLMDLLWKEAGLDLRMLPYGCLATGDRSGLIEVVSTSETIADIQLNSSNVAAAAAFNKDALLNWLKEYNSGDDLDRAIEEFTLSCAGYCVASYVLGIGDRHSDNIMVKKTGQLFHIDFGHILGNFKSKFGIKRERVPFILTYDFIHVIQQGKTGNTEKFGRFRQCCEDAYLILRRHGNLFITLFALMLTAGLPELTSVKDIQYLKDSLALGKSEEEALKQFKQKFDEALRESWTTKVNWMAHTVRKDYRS
Chain of PI3Kβ (P27986 whole entry partner): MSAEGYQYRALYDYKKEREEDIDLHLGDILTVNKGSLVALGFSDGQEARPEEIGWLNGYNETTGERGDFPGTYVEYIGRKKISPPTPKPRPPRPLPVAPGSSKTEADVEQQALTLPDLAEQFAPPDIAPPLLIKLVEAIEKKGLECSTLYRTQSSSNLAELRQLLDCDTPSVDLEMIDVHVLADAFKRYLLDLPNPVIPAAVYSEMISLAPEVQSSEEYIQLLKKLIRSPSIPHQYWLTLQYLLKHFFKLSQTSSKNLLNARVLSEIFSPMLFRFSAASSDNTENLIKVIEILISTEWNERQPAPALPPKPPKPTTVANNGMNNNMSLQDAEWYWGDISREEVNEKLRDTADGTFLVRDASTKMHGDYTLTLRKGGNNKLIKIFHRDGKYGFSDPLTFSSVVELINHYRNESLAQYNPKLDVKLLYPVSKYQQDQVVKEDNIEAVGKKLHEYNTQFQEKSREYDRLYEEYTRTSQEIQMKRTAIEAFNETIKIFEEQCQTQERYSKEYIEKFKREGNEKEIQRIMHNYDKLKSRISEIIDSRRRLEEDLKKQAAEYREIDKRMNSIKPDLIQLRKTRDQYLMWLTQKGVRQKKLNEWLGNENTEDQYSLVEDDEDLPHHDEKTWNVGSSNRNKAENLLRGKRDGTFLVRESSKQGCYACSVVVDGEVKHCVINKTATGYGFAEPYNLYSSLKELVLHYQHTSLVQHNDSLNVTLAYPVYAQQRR

[5] = test system: 81 GPCR receptors, 8 ion channels and 5 transporters; assay: General selectivity panel (Cerep); format: binding; conditions: 10 μM
PI3Kδ [6] = biological target: T1, PI3Kδ (Homo sapiens, UniProt O00329); assay: BCR crosslinking-induced B cell CD69 expression, human whole blood; format: cell-based; conditions: CD19+ cells (human whole blood), B cell CD69 surface expression
Target sequence in this assay (O00329 whole entry): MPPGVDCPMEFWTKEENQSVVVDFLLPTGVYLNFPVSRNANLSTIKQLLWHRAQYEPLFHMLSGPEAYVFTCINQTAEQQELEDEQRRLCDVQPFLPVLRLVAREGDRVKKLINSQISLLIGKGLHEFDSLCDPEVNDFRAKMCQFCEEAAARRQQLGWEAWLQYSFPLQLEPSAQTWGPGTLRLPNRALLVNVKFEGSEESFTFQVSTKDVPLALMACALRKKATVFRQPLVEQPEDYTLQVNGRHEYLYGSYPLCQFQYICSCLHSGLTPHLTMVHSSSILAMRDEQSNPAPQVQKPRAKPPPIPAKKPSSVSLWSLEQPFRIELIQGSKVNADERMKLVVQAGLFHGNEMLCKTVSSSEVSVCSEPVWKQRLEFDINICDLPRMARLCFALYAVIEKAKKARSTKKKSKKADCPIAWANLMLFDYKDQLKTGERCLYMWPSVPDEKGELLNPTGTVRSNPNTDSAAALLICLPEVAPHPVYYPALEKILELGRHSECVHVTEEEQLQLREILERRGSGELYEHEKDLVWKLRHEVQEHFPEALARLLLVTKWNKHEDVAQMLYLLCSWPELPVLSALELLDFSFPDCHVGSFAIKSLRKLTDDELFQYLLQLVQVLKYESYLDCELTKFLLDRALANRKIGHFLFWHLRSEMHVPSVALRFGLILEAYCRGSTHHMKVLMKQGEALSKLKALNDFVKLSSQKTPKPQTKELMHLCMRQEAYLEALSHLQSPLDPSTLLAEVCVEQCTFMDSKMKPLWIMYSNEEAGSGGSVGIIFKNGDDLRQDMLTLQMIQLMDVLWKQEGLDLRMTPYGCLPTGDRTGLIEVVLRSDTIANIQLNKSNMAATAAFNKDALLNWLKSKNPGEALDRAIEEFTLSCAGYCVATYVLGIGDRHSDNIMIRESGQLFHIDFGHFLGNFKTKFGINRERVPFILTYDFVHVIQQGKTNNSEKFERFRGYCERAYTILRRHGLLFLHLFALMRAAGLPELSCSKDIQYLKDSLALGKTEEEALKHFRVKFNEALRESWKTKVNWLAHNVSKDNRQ
Target sequence in this assay (P27986 whole entry partner): as the sequence (P27986 whole entry partner) above

[7] = test system: secondary IgG antibody responses to KLH; assay: Secondary TDAR to KLH in mice; format: in vivo
Method: This assay included two immunizations with KLH separated 15 days apart (50 μg KLH/animal, intraperitoneally) and specific IgG anti-KLH levels were measured on day +11 after the second immunization. Administration of test compound (0.3 and 3 mg/kg) started on the day of second immunization (day +1) and then once daily for the next 9 days.

PI3Kδ [8] = biological target: T1, PI3Kδ; assay: Immune complex-induced ROS release in human neutrophils; format: cell-based; conditions: immune complexes
Target sequence in this assay (O00329 whole entry): as the sequence (O00329 whole entry) above
Target sequence in this assay (P27986 2-724 partner limits assumed): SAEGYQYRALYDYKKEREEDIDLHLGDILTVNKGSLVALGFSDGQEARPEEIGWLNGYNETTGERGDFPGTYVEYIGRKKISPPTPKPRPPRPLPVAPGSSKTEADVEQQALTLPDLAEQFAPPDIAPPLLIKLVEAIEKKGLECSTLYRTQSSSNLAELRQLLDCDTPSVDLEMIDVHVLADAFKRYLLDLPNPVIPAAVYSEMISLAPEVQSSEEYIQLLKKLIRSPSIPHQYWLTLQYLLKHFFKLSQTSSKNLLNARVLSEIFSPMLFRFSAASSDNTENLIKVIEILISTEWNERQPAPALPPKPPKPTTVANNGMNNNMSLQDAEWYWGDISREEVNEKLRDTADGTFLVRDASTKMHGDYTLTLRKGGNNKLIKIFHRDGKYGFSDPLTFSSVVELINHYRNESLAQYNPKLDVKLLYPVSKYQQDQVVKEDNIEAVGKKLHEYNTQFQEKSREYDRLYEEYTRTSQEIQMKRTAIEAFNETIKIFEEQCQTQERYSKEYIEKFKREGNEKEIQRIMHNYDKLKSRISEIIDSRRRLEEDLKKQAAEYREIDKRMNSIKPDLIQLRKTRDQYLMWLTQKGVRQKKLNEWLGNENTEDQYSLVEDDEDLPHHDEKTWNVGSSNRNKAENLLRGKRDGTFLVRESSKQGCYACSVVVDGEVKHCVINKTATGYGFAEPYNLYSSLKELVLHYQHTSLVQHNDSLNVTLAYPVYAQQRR

CHO cells = conditions: highest tested concentration of 100 μM, 24 h
[9] = test system: 273 protein and lipid kinases; assay: General selectivity kinase panel (Millipore, Invitrogen and ProQinase); format: biochemical; conditions: 10 μM
PI3Kδ [10] = biological target: T1, PI3Kδ; assay: M-CSF-induced AKT phosphorylation in THP-1 cells; format: cell-based; conditions: THP-1, M-CSF stimulus, phosphorylated AKT
Target sequence in this assay (O00329 whole entry): as the sequence (O00329 whole entry) above
Target sequence in this assay (P27986 whole entry partner): as the sequence (P27986 whole entry partner) above

PI3Kδ [11] = biological target: T1, PI3Kδ; assay: BCR crosslinking-induced CD69 expression in CD19+ B cells, isolated PBMC; format: cell-based; conditions: Anti-IgD, CD69 surface expression
Target sequence in this assay (O00329 whole entry): as the sequence (O00329 whole entry) above
Target sequence in this assay (P27986 whole entry partner): as the sequence (P27986 whole entry partner) above

[12] = test system: primary antibody responses to KLH; assay: Primary T cell dependent antibody response (TDAR) to KLH in mice; format: in vivo
Method: This assay allows a global assessment of the effect of a drug candidate on antigen presentation, helper T lymphocyte function and B lymphocyte dependent antibody production.
In both cases, the administration of the test compound started on the day of sensitization (day +1, KLH 2 mg/mouse, intravenously). […] A possible reason for this discrepancy is that the lymphocyte count of the concurrent vehicle group of the latter study was abnormally lower than usual, which could mask a potential effect of the test compound on this parameter.

PI3K p110γ = PI3K p110γ (Homo sapiens, UniProt P48736); conditions: recombinant human isoform, pre-incubation 30 min
Chain of PI3K p110γ (P48736 whole entry, canonical isoform): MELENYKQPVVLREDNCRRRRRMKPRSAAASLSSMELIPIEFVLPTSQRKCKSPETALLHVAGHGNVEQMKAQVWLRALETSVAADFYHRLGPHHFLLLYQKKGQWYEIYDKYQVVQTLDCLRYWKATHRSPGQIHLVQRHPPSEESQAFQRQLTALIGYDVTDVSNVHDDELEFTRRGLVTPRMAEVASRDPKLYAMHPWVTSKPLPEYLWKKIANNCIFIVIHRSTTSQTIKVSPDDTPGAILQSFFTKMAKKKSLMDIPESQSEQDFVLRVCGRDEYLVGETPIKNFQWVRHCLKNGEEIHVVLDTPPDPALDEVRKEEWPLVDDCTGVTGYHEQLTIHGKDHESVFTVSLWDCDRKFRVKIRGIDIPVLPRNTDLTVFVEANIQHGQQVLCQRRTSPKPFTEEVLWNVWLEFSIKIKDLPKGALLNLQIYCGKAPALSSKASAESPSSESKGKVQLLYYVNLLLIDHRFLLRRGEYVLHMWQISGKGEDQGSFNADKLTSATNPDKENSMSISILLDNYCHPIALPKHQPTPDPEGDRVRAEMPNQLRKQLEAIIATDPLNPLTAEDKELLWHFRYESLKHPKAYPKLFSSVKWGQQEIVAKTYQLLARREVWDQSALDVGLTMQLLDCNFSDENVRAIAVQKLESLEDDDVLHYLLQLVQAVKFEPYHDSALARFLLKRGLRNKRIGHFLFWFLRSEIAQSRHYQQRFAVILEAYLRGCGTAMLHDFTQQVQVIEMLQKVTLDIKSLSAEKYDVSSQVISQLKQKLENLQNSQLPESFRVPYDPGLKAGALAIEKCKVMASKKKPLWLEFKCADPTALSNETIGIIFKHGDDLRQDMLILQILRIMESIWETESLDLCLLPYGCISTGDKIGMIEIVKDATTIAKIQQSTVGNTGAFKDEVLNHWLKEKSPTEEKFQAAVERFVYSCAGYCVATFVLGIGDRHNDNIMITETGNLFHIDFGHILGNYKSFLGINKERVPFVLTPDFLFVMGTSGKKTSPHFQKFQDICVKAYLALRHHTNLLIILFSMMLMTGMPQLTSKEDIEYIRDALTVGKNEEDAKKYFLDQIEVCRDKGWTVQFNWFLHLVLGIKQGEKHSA

[13] = dexamethasone 0.1-10 mg/kg and LAS191954 0.1-10 mg/kg ranges tested, dose of value not stated
[14] = Week 12 (beginning of treatment)

`C[C@@H]1C[C@H]2[C@@H]3CCC4=CC(=O)C=C[C@]4(C)[C@@]3(F)[C@@H](O)C[C@]2(C)[C@@]1(O)C(=O)CO` [Dexamethasone, dexamethasone, reference compound] was tested. Which “reduction in IL2 production versus vehicle-treated con A-induced rats” value [1] did it give?
The value was “only = 42%”.

And the “reduction in IL2 production versus vehicle-treated con A-induced rats” value ([1]; listed as dexamethasone)?
The value was 42%.

What about the “plasma levels alone versus in combination” value [1] of the same compound?
The value was “same levels”.

And the “reduction in eosinophils in BALF” value [2, 13]?
Its value is 58%.

And the “reduction in lymphocytes in BALF” value [2, 13]?
Its value is 64%.

What about the “reduction in neutrophils in BALF” value [2, 13] of the same compound?
Its value is “only = 53%,”.

And the “reduction in neutrophils in BALF” value (neutrophils in BALF)?
Its value is “only = 11%”.

For `C[C@H]1C[C@@H]2[C@H]([C@@H](O)C[C@@]3(C)[C@H]2CC[C@]3(O)C(=O)CO)[C@@]2(C)C=CC(=O)C=C12` [Methylprednisolone, reference compound], which body weight gain [3] is on record?
The body weight gain was “diminished the body weight gain”.

Which results are given for `C[C@]12C=CC(=O)C=C1CC[C@@H]1[C@@H]2[C@@H](O)C[C@@]2(C)[C@H]1CC[C@]2(O)C(=O)CO` [Prednisolone, prednisolone]?
Inhibition (%) of Anti Dsg3 total IgG production (Normalized AUCw 12-19) versus Vehicle [4]: 49.5 ± 10%; Inhibition (%) of Anti dsDNA total IgG production (Normalized AUCw 12-19) versus Vehicle [4]: 46.9 ± 10.9%; Inhibition (%) of Anti Dsg3 total IgG production (Normalized AUCw 12-19) versus Vehicle ([4]; listed as prednisolone): 49.5%; Inhibition (%) of Anti dsDNA total IgG production (Normalized AUCw 12-19) versus Vehicle ([4]; listed as prednisolone): 47%; Absolute Anti-Dsg3 IgG levels (Mean ± SEM) [4, 14]: 501 ± 188 U/ml; Absolute Anti-dsDNA IgG levels (Mean ± SEM) [4, 14]: 372.796 ± 56.638 U/ml; Absolute Anti-Dsg3 IgG levels (Mean ± SEM) ([4]; Week 19 (end of treatment)): 242 ± 101 U/ml; Absolute Anti-dsDNA IgG levels (Mean ± SEM) ([4]; Week 19 (end of treatment)): 933.755 ± 343.424 U/ml; change of anti-dsDNA antibody levels at the end of treatment (in words) ([4]; week 19 versus week 12, FIG. 3): doubled; mean decrease in anti-Dsg3 antibody levels below those at the beginning of treatment ([4]; week 19 versus week 12, FIG. 3): 20%

With `C[C@H](Nc1ncnc(N)c1C#N)c1nn2ccc(C#N)c2c(=O)n1-c1ccccc1` [LAS191954, (S)-2-(1-(6-amino-5-cyanopyrimidin-4-ylamino)ethyl)-4-oxo-3-phenyl-3,4-dihydropyrrolo[1,2-f][1,2,4]triazine-5-carbonitrile] as the compound, how does the ID50 ([4]; Anti-Dsg3 and anti-dsDNA autoantibody production, repeated administration) read?
Its ID50 is under 3 mg/kg.

And the “Absolute Anti-Dsg3 IgG levels (Mean ± SEM)” value [4, 14]?
Its value is 687 ± 252 U/ml.

And the “Absolute Anti-dsDNA IgG levels (Mean ± SEM)” value [4, 14]?
Its value is 370.152 ± 52.401 U/ml.

And the “Absolute Anti-Dsg3 IgG levels (Mean ± SEM)” value ([4]; Week 19 (end of treatment))?
The value was 450 ± 201 U/ml.

And the “Absolute Anti-dsDNA IgG levels (Mean ± SEM)” value ([4]; Week 19 (end of treatment))?
The value was 333.806 ± 106.959 U/ml.

And the “mean decrease in anti-Dsg3 antibody levels below those at the beginning of treatment” value ([4]; week 19 versus week 12, FIG. 3)?
Its value is 40%.

What about the “reduction of anti-dsDNA antibody titers at the end of treatment” value ([4]; week 19 versus week 12, FIG. 3) of the same compound?
Its value is 10%.

What about the IC50 (PI3Kβ) of the same compound?
Its IC50 is 295 nM.

And the “plasma levels alone versus in combination” value [1]?
The value was “same levels”.

And the ID50 ([1]; single administration, rats)?
The ID50 was 0.13 mg/kg.

What about the “inhibition at single concentration” value [5] of the same compound?
The value was “No inhibition”.

What about the IC50 (PI3Kδ [6]; Anti-IgD) of the same compound?
The IC50 was 47 nM.

What about the IC50 (PI3Kδ [6]; Anti-IgM) of the same compound?
The IC50 was 34 nM.

What about the lymphocyte counts ([7]; 0.3 and 3 mg/kg once daily) of the same compound?
The lymphocyte counts was “reduced lymphocyte counts”.

What about the ID50 ([7]; secondary IgG anti-KLH, day +11 after second immunization, repeated administration) of the same compound?
Its ID50 is under 0.3 mg/kg.

What about the “effect on eosinophils in BALF (in words)” value ([2]; LAS191954 only) of the same compound?
The value was “only = Modest”.

What about the “effect on lymphocytes in BALF (in words)” value ([2]; LAS191954 only) of the same compound?
Its value is “only = Modest”.

What about the “effect on neutrophils in BALF (in words)” value ([2]; LAS191954 only) of the same compound?
Its value is “increase in”.

What about the IC50 (PI3Kδ [8]) of the same compound?
Its IC50 is 11 nM.

And the maximum cell death (CHO cells)?
The maximum cell death was 27%.

What about the “inhibition at single concentration” value [9] of the same compound?
The value was “No inhibition”.

What about the IC50 (PI3Kδ [10]) of the same compound?
The IC50 was 7.8 nM.

And the “reduction in neutrophils in BALF” value (neutrophils in BALF)?
Its value is “only = 49%”.

What about the IC50 (PI3Kδ [11]) of the same compound?
The IC50 was 4.6 nM.

And the ID50 ([12]; primary IgG anti-KLH, day +15, 14-day dosing)?
Its ID50 is 0.17 mg/kg.

What about the lymphocyte count ([12]; primary IgG study, 14-day dosing) of the same compound?
Its lymphocyte count is “no apparent effect”.

And the ID50 ([12]; primary IgM anti-KLH, day +5, repeated daily administration)?
Its ID50 is 0.12 mg/kg.

What about the WBC counts ([12]; primary IgM study, 4 days daily treatment) of the same compound?
The WBC counts was “lower WBC counts”.

And the “general health status of the animals” value ([12]; primary TDAR, 0.03-10 mg/kg daily)?
Its value is “without apparent effects”.

And the “overall disease activity, AUC of accumulative clinical score versus vehicle” value ([3]; LAS191954 3 mg/kg/day orally)?
Its value is “significant reduction”.

What about the body weight gain [3] of the same compound?
The body weight gain was “not altered”.

What about the IC50 (PI3K p110γ) of the same compound?
The IC50 was 71.7 nM.
